Two molecules from US8952018B2, “Pharmaceutical combination of MEK inhibitor and B-Raf inhibitors” (GlaxoSmithKline LLC, priority 2009, dated 2015) can be followed below.

Read-outs that look alike come from different tables or passages of the source.

The test system of test [1] is melanoma lines 12R8-3, 12R8-1, 12R5-3, and 16R6-3. Description: Cell growth inhibition assay, summary of Table 3. To be noted: Homo sapiens; range over 12R8-3, 12R8-1, 12R5-3, 16R6-3; read-out: IC50, single agent. The format is cell-based.
Another test relates to 12R8-3. Description: Cell growth inhibition assay (Cell Titer Glo) and combination data analysis. To be noted: Homo sapiens, A375P-F11, 72 h, Melanoma, resistant clone of A375 PF11, BRAF_V600E, 3 days. The format is cell-based. For orientation: In ATP-based viability assays light output follows the ATP content of the culture.
The next test relates to 12R5-1. Described as above. To be noted: Homo sapiens, A375P-F11, 72 h, Melanoma, resistant clone of A375 PF11, BRAF_V600E, 3 days. The test is classed as cell-based.
A further test has as its system SW1417. The test is described as above. The format is cell-based. Conditions: Homo sapiens, 72 h, Colon, BRAF_V600E, 3 days, mean ± std.
The next test concerns 16R6-3. The description is as above. The test is classed as cell-based. Conditions: Homo sapiens, A375P-F11, 72 h, Melanoma, resistant clone of A375 PF11, BRAF_V600E, 3 days.
In a further test the test system is SW1463. The description is as above. The test is classed as cell-based. Conditions: Homo sapiens, 72 h, Colon, KRAS_G12C, 3 days.
The next test relates to LS-1034. The description is as above. The test is classed as cell-based. Conditions: Homo sapiens, 72 h, Colon, KRAS_A146T, 3 days.
For another test, the system named is NCI-H508. The test is described as above. The test is classed as cell-based. To be noted: Homo sapiens, 72 h, Colon, BRAF_G596R, 3 days.
The next test deals with SW480. Described as above. The test is classed as cell-based. Conditions: Homo sapiens, 72 h, Colon, KRAS_G12C, 3 days.
The test system of a further test is SW837. The test is described as above. To be noted: Homo sapiens, 72 h, Colon, KRAS_G12C, 3 days. The test is classed as cell-based.
The test system of another test is 12R8-1. Described as above. The test is classed as cell-based. To be noted: Homo sapiens, A375P-F11, 72 h, Melanoma, resistant clone of A375 PF11, BRAF_V600E, 3 days.
The test system of the next test is HCT-8. The description is as above. The test is classed as cell-based. To be noted: Homo sapiens, 72 h, Colon, KRAS_G13D, 3 days.
For another test, the system named is DLD1. The test is described as above. The test is classed as cell-based. Conditions: Homo sapiens, DLD-1, 72 h, Colon, KRAS_G13D, 3 days.
Another test deals with A375PF11. The test is described as above. The format is cell-based. Conditions: Homo sapiens, A375P-F11, 72 h, Melanoma, BRAF_V600E, 3 days, mean ± std.
Test [2] deals with melanoma lines 16R5-2, 16R6-4 and 12R5-1. Nature of the test: Cell growth inhibition assay, summary of Table 3. Conditions: 16R5-2, 16R6-4, 12R5-1; compound alone. The format is cell-based, human. The method, then:
Cell lines and growth conditions—Human colon tumor lines, Colo-205, DLD-1, HCT-8, HT-29, LS-1034, NCI-H508, RKO, SW1417, SW1463, SW480 and SW837, and human melanoma line A375 were from ATCC. A375 PF11 was derived from A375.
Cell growth inhibition assay and combination data analysis—All cells were cultured for a minimum of 72 hours prior to cell plating. Cells were assayed in a 96-well tissue culture plate (NUNC 136102) of RPMI medium containing 10% FBS for all cells at 1,000 cells per well. […] ATP levels were determined by adding Cell Titer Glo® (Promega) according to the manufacturer's protocol. Briefly, Cell Titer Glo® was added each plate, incubated for 30 minutes then luminescent signal was read on the SpectraMax L plate reader with a 0.5 sec integration time.
Inhibition of cell growth was estimated after treatment with compound or combination of compounds for three days and comparing the signal to cells treated with vehicle (DMSO). Cell growth was calculated relative to vehicle (DMSO) treated control wells. […]
The combination effects on the response scale were quantified by Excess Over Highest Single Agent (EOHSA) based on the concept of nonlinear blending as described in detail by Peterson and Novick (2007) and Peterson (2010) [(2;3) [Peterson and Novick, 2007; Peterson, 2010]. […]

The subject of the next test is RKO. Nature of the test: Cell growth inhibition assay (Cell Titer Glo) and combination data analysis. The test is classed as cell-based. To be noted: Homo sapiens, 72 h, Colon, BRAF_V600E, 3 days, mean ± std.
The test system of test [3] is seven colon lines without BRAF V600E mutation (either with BRAF G596R or KRAS mutations). Nature of the test: Cell growth inhibition assay, summary of Table 3. The test is classed as cell-based. Conditions: Homo sapiens. On the procedure: (§1) A375 PF11 was derived from A375.
(§2) Cell growth inhibition assay and combination data analysis—All cells were cultured for a minimum of 72 hours prior to cell plating. […] Cells were incubated in the presence of compounds for 3 days. ATP levels were determined by adding Cell Titer Glo® (Promega) according to the manufacturer's protocol. Briefly, Cell Titer Glo® was added each plate, incubated for 30 minutes then luminescent signal was read on the SpectraMax L plate reader with a 0.5 sec integration time.
(§3) Inhibition of cell growth was estimated after treatment with compound or combination of compounds for three days and comparing the signal to cells treated with vehicle (DMSO). Cell growth was calculated relative to vehicle (DMSO) treated control wells.
(§4) In general, a CI value <0.9, between 0.9 and 1.1, or >1.1 indicates synergy, additivity and antagonism, respectively. In general, the smaller the Cl number, the greater is the strength of synergy.
(§5) EOHSA values are defined as increases in improvement (here, in ‘percentage points’ (ppts) difference) produced by the combination over the best single agent at its component dose level for the combination. For single agent and combination treatments, cells were exposed to compounds at a fixed-dose-ratio, and dose response curves were fit to the experimental data and analyzed using regression models. At specified total dose levels of IC50 along the dose response curve, the dose combination (corresponding to IC50) was determined for making EOHSA statistical inferences.

The test system of test [4] is four colon cell lines with BRAF V600E mutation. Nature of the test: Cell growth inhibition assay, summary of Table 3. The format is cell-based. To be noted: Homo sapiens, read-out: IC50 values, single agent. The method, then: as §1, §2, §3, §4, §5
A further test has as its system Colo-205. Description: Cell growth inhibition assay (Cell Titer Glo) and combination data analysis. To be noted: Homo sapiens, 72 h, Colon, BRAF_V600E, 3 days, mean ± std. The test is classed as cell-based.
The test system of a further test is 16R6-4. The description is as above. The test is classed as cell-based. Conditions: Homo sapiens, A375P-F11, 72 h, Melanoma, resistant clone of A375 PF11, BRAF_V600E, 3 days.
In the next test the test system is 12R5-3. The description is as above. The test is classed as cell-based. Conditions: Homo sapiens, A375P-F11, 72 h, Melanoma, resistant clone of A375 PF11, BRAF_V600E, 3 days.
Another test has as its system HT-29. The test is described as above. The test is classed as cell-based. To be noted: Homo sapiens, 72 h, Colon, BRAF_V600E, 3 days, mean ± std.
The subject of the next test is 16R5-2. The description is as above. The test is classed as cell-based. To be noted: Homo sapiens, A375P-F11, 72 h, Melanoma, resistant clone of A375 PF11, BRAF_V600E, 3 days.
Setting [5] is: mean ± std, read-out: IC50 Single Agent Compound A.
Where [6] appears, read: read-out: IC50 Single Agent Compound A.
Where [7] appears, read: read-out: IC50 Single Agent Compound B.

Experimental for A375PF11: (§6) Cell growth inhibition assay and combination data analysis—All cells were cultured for a minimum of 72 hours prior to cell plating. Cells were assayed in a 96-well tissue culture plate (NUNC 136102) of RPMI medium containing 10% FBS for all cells at 1,000 cells per well. Approximately 24 hours after plating, cells were exposed to ten, three-fold serial dilutions of compound or the combination of the two agents at a constant molar to molar ratio of 1:10 Compound A (DMSO solvate) to Compound B (free form) in RPMI media containing 10% FBS. Concentrations tested for Compound A were 1 μM-0.05 nM and for Compound B were 10 μM-0.5 nM. Cells were incubated in the presence of compounds for 3 days. ATP levels were determined by adding Cell Titer Glo® (Promega) according to the manufacturer's protocol. Briefly, Cell Titer Glo® was added each plate, incubated for 30 minutes then luminescent signal was read on the SpectraMax L plate reader with a 0.5 sec integration time.
Text for Colo-205: (§7) EOHSA values are defined as increases in improvement (here, in ‘percentage points’ (ppts) difference) produced by the combination over the best single agent at its component dose level for the combination. For single agent and combination treatments, cells were exposed to compounds at a fixed-dose-ratio, and dose response curves were fit to the experimental data and analyzed using regression models. […]
Text for DLD1: as §7
Text for HT-29: as §7
Text for RKO: as §7
Text for SW1417: as §7
Experimental for SW1463: as §6

With `CC(=O)Nc1cccc(-n2c(=O)n(C3CC3)c(=O)c3c(Nc4ccc(I)cc4F)n(C)c(=O)c(C)c32)c1` [Compound A, N-{3-[3-cyclopropyl-5-(2-fluoro-4-iodo-phenylamino)6,8-dimethyl-2,4,7-trioxo-3,4,6,7-tetrahydro-2H-pyrido[4,3-d]pyrimidin-1-yl]phenyl}acetamide], the IC50 in [1] is 58 to 109 nM; in the test with 12R8-3 (setting [5]) it was 59 ± 37 nM; in the test on 12R5-1 (setting [6]), above 1000 nM; in the test with SW1417 (setting [6]), 3 ± 2 nM; in the test on 16R6-3 (setting [5]) it was 109 ± 22 nM; in the test on SW1463 (setting [5]), 5 ± 4 nM. Moreover, the IC50 in the test on LS-1034 (setting [5]) amounted to 11 ± 7 nM; in the test on NCI-H508 (setting [5]), 10 ± 5 nM; with SW480 (setting [5]) it was 42 ± 3 nM; in the test on SW837 (setting [5]), 93 ± 63 nM; in the test with 12R8-1 (setting [5]), 58 ± 30 nM; with HCT-8 (setting [5]) it was 50 ± 11 nM. Moreover, the IC50 with DLD1 (setting [5]) was 557 ± 393 nM; in the test with A375PF11 (setting [6]), 1 nM; in the test on RKO (setting [6]) it was 25 ± 7 nM; in test [3] (six out of the seven colon lines without BRAF V600E mutation, read-out: IC50s, single agent), 1 to 93 nM; in [4] (range over the four colon cell lines with BRAF V600E mutation), 1 to 25 nM; in the test on Colo-205 (setting [6]) it was 1 nM. In addition, the IC50 in the test with 16R6-4 (setting [6]) is above 1000 nM; in the test on 12R5-3 (setting [5]), 92 ± 52 nM; in the test on HT-29 (setting [6]), 1 ± 1 nM; with 16R5-2 (setting [6]), above 1000 nM. In test [2], the “sensitivity to single agent” value was “resistant or insensitive”.
Regarding `CC(C)(C)c1nc(-c2cccc(NS(=O)(=O)c3c(F)cccc3F)c2F)c(-c2ccnc(N)n2)s1` [Compound B, N-{3-[5-(2-Amino-4-pyrimidinyl)-2-(1,1-dimethylethyl)-1,3-thiazol-4-yl]-2-fluorophenyl}-2,6-difluorobenzenesulfonamide], the IC50 in [1] was above 10000 nM; in the test with 12R8-3 (setting [7]), above 10000 nM; in the test on 12R5-1 (setting [7]), above 10000 nM; with SW1417 (setting [7]), 203 ± 15 nM; in the test on 16R6-3 (setting [7]) it was above 10000 nM; with SW1463 (setting [7]) it was above 10000 nM. Besides, the IC50 with LS-1034 (setting [7]), in the test with NCI-H508 (setting [7]), in the test with SW480 (setting [7]), with SW837 (setting [7]), in the test on 12R8-1 (setting [7]) and with HCT-8 (setting [7]) was above 10000 nM each time. Besides, the IC50 in the test with DLD1 (setting [7]) was above 10000 nM; with A375PF11 (setting [7]), 12 nM; in the test on RKO (setting [7]) it was 5650 ± 3900 nM; in test [3] (read-out: IC50, single agent), above 10000 nM; in test [4], 18 to 5650 nM; with Colo-205 (setting [7]), 18 ± 13 nM. Also, the IC50 was above 10000 nM with 16R6-4 (setting [7]), above 10000 nM with 12R5-3 (setting [7]), 22 ± 22 nM in the test with HT-29 (setting [7]) and above 10000 nM with 16R5-2 (setting [7]). Moreover, the “sensitivity to single agent” value in [2] was “resistant or insensitive”.
